This note sets out measurements from patent US20190231751A1, “TREATMENT OF FIBROTIC DISORDERS WITH JUN N-TERMINAL KINASE INHIBITORS” (Imago Pharmaceuticals, Inc., priority 2016, published 2019).

Holding throughout (assay type): biochemical
The target in test [1] is JNK3 (Homo sapiens, UniProt P53779). Put plainly: In vitro JNK3 inhibition (Table 1). The method, then: (§1) In vitro assays for the determination of JNK activities are known in the art and exemplary assay formats are described herein.
(§2) IC50 values in Table 1 were determined using the procedures as described in U.S. Pat. No. 8,450,353.

Test [2] has as its target JNK1 (Homo sapiens, UniProt P45983). Nature of the test: In vitro JNK1 inhibition (Table 1). The method, then:
as §1, §2

The target of test [3] is JNK2 (Homo sapiens, UniProt P45984). Nature of the test: In vitro JNK2 inhibition (Table 1). The method, then: as §1, §2

Structures are written as SMILES. Bounds are passed on as bounds.

Sequence of JNK2 (P45984 whole entry, species assumed): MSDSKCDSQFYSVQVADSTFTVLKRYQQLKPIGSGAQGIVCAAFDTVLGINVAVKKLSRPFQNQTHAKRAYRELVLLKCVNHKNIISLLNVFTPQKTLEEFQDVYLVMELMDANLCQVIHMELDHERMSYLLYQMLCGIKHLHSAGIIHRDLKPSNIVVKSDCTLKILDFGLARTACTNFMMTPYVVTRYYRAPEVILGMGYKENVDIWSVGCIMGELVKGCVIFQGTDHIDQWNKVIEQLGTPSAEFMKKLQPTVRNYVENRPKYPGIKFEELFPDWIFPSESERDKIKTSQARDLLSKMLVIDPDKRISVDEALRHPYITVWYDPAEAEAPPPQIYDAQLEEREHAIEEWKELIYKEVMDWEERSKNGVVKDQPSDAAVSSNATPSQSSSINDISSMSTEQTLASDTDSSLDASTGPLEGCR
Sequence of JNK1 (P45983 whole entry, species assumed): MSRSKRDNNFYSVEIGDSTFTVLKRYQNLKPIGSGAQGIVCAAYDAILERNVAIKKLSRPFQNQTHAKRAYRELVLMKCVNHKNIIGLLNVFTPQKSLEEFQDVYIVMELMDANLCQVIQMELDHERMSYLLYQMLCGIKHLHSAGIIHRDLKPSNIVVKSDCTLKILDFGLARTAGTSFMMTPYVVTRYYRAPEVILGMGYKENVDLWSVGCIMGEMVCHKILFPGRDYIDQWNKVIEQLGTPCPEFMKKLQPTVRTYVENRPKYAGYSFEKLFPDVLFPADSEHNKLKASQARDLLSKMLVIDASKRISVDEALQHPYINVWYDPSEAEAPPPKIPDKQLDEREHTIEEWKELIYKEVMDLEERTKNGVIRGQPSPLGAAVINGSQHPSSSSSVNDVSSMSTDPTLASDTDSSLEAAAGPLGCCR
Sequence of JNK3 (P53779 whole entry, species assumed): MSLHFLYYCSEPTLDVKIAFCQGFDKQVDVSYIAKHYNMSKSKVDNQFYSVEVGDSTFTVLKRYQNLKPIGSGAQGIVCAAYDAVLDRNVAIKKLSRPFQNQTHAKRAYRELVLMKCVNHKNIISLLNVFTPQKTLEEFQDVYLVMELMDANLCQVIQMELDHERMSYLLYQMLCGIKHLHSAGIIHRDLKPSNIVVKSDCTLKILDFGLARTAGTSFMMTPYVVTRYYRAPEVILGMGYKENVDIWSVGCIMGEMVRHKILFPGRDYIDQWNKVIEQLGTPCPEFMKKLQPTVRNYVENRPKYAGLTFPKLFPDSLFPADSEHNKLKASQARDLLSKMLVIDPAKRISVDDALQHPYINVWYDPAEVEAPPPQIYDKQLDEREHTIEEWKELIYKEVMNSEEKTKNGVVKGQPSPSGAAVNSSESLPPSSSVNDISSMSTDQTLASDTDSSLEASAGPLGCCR

On to `O=C(Cc1cccc2cnccc12)Nc1scc(Cl)c1-c1ncn[nH]1` [N-(4-chloro-3-(1H-1,2,4-triazol-5-yl)thiophen-2-yl)-2-(isoquinolin-5-yl)acetamide], for which the IC50 in test [1], in test [2] and in test [3] was under 100 nM each time.
For `N#Cc1ccc2ccc(=O)n(CC(=O)Nc3scc(Br)c3-c3ncn[nH]3)c2c1` [N-(4-bromo-3-(1H-1,2,4-triazol-5-yl)thiophen-2-yl)-2-(7-cyano-2-oxoquinolin-1(2H)-yl)acetamide], the IC50 in test [1], in test [2] and in test [3] was under 100 nM in each case.
In the case of `O=C(Cn1c(=O)ccc2ccc(C(F)(F)F)cc21)Nc1scc(Br)c1-c1ncn[nH]1` [N-(4-bromo-3-(1H-1,2,4-triazol-5-yl)thiophen-2-yl)-2-(2-oxo-7-(trifluoromethyl)quinolin-1(2H)-yl)acetamide], the IC50 in test [1], in test [2] and in test [3] was under 100 nM in each case.
As for `O=C(CN1C(=O)CCc2ncccc21)Nc1scc(Cl)c1-c1nc[nH]n1` [N-(4-chloro-3-(1H-1,2,4-triazol-3-yl)thiophen-2-yl)-2-(2-oxo-3,4-dihydro-1,5-naphthyridin-1(2H)-yl)acetamide], the IC50 in test [1], in test [2] and in test [3] was under 100 nM each time.
For the molecule `O=C(Cn1c(=O)ccc2cnc(C(F)(F)F)cc21)Nc1scc(Cl)c1-c1nc[nH]n1` [N-(4-chloro-3-(1H-1,2,4-triazol-3-yl)thiophen-2-yl)-2-(2-oxo-7-(trifluoromethyl)-1,6-naphthyridin-1(2H)-yl)acetamide], the IC50 in test [1], in test [2] and in test [3] was under 100 nM in each case.
For `N#Cc1csc(NC(=O)CN2C(=O)CCc3ncccc32)c1-c1nccs1` [N-(4-cyano-3-(thiazol-2-yl)thiophen-2-yl)-2-(2-oxo-3,4-dihydro-1,5-naphthyridin-1(2H)-yl)acetamide], the IC50 in test [1], in test [2] and in test [3] was under 100 nM in each case.
Consider `O=C(Cn1c(=O)ccc2cc(C(F)(F)F)ccc21)Nc1scc(Br)c1-n1nccn1` [N-(4-bromo-3-(2H-1,2,3-triazol-2-yl)thiophen-2-yl)-2-(2-oxo-6-(trifluoromethyl)quinolin-1(2H)-yl)acetamide], for which the figures for the IC50 in test [1], in test [2] and in test [3] were under 100 nM, 100 to 10000 nM and under 100 nM, respectively.
For the molecule `O=C(Cn1c(=O)ccc2cnc(C(F)(F)F)cc21)Nc1scc(Br)c1-c1ncn[nH]1` [N-(4-bromo-3-(1H-1,2,4-triazol-5-yl)thiophen-2-yl)-2-(2-oxo-7-(trifluoromethyl)-1,6-naphthyridin-1(2H)-yl)acetamide], the IC50 in test [1], in test [2] and in test [3] was under 100 nM in each case.
`O=C(Cn1c(=O)ccc2ncccc21)Nc1scc(Br)c1-c1ncn[nH]1` [IGP002, N-(4-bromo-3-(1H-1,2,4-triazol-5-yl)thiophen-2-yl)-2-(2-oxo-1,5-naphthyridin-1(2H)-yl)acetamide]: the IC50 in test [1], in test [2] and in test [3] was under 100 nM each time.
In the case of `N#Cc1csc(NC(=O)Cc2cccc3ncccc23)c1-c1nnc[nH]1` [N-(4-cyano-3-(4H-1,2,4-triazol-3-yl)thiophen-2-yl)-2-(quinolin-5-yl)acetamide], the IC50 in test [1], in test [2] and in test [3] was under 100 nM each time.
For `Cc1n[nH]c(-c2c(C)csc2NC(=O)CN2C(=O)CCc3ccccc32)n1` [N-(4-methyl-3-(3-methyl-1H-1,2,4-triazol-5-yl)thiophen-2-yl)-2-(2-oxo-3,4-dihydroquinolin-1(2H)-yl)acetamide], the IC50 in test [1], in test [2] and in test [3] was under 100 nM throughout.
For `CN(C)CCN(C(=O)Cn1c(=O)ccc2cc(C(F)(F)F)ccc21)c1scc(Cl)c1-c1nc[nH]n1` [N-(4-chloro-3-(1H-1,2,4-triazol-3-yl)thiophen-2-yl)-N-(2-(dimethylamino)ethyl)-2-(2-oxo-6-(trifluoromethyl)quinolin-1(2H)-yl)acetamide], the IC50 in test [1], in test [2] and in test [3] was 100 to 10000 nM throughout.
As to `C#Cc1ccc2c(ccc(=O)n2CC(=O)Nc2scc(Br)c2-c2ncn[nH]2)c1` [N-(4-bromo-3-(1H-1,2,4-triazol-5-yl)thiophen-2-yl)-2-(6-ethynyl-2-oxoquinolin-1(2H)-yl)acetamide], the IC50 in test [1], in test [2] and in test [3] was under 100 nM each time.
Turning to `O=C(Cn1c(=O)ccc2nc(C(F)(F)F)ccc21)Nc1scc(Cl)c1-c1ncn[nH]1` [N-(4-chloro-3-(1H-1,2,4-triazol-5-yl)thiophen-2-yl)-2-(2-oxo-6-(trifluoromethyl)-1,5-naphthyridin-1(2H)-yl)acetamide], the IC50 in test [1], in test [2] and in test [3] was under 100 nM in each case.
For `O=C(Cc1cccc2ncccc12)Nc1scc(Br)c1-c1ncn[nH]1` [N-(4-bromo-3-(1H-1,2,4-triazol-5-yl)thiophen-2-yl)-2-(quinolin-5-yl)acetamide], the IC50 in test [1], in test [2] and in test [3] was under 100 nM each time.
`N#Cc1csc(NC(=O)CN2C(=O)CCc3ncccc32)c1-c1nc[nH]n1` [N-(4-cyano-3-(1H-1,2,4-triazol-3-yl)thiophen-2-yl)-2-(2-oxo-3,4-dihydro-1,5-naphthyridin-1(2H)-yl)acetamide]: the IC50 in test [1], in test [2] and in test [3] was under 100 nM each time.
With `O=C(Cn1c(=O)ccc2c(F)cccc21)Nc1scc(Br)c1-c1ncn[nH]1` [N-(4-bromo-3-(1H-1,2,4-triazol-5-yl)thiophen-2-yl)-2-(5-fluoro-2-oxoquinolin-1(2H)-yl)acetamide], the IC50 in test [1], in test [2] and in test [3] was under 100 nM each time.
As to `O=C(Cn1c(=O)ccc2cc(C(F)(F)F)ccc21)Nc1scc(Cl)c1-c1ncn(CCCN2CCCC2)n1` [N-(4-chloro-3-(1-(3-(pyrrolidin-1-yl)propyl)-1H-1,2,4-triazol-3-yl)thiophen-2-yl)-2-(2-oxo-6-(trifluoromethyl)quinolin-1(2H)-yl)acetamide], the IC50 in test [1], in test [2] and in test [3] was under 100 nM each time.
Take `O=C(CN1C(=O)CCc2ccc(Cl)cc21)Nc1scc(Br)c1-c1ncn[nH]1` [N-(4-bromo-3-(1H-1,2,4-triazol-5-yl)thiophen-2-yl)-2-(7-chloro-2-oxo-3,4-dihydroquinolin-1(2H)-yl)acetamide]: the IC50 in test [1], in test [2] and in test [3] was under 100 nM each time.
On to `O=C(Cn1c(=O)ccc2cc(C(F)(F)F)ccc21)N(CCCN1CCCC1)c1scc(Cl)c1-c1nc[nH]n1` [N-(4-chloro-3-(1H-1,2,4-triazol-3-yl)thiophen-2-yl)-2-(2-oxo-6-(trifluoromethyl)quinolin-1(2H)-yl)-N-(3-(pyrrolidin-1-yl)propyl)acetamide], for which the IC50 in test [1], in test [2] and in test [3] was 100 to 10000 nM throughout.
With `O=C(Cn1c(=O)ccc2ccc(F)cc21)Nc1scc(Br)c1-c1ncn[nH]1` [N-(4-bromo-3-(1H-1,2,4-triazol-5-yl)thiophen-2-yl)-2-(7-fluoro-2-oxoquinolin-1(2H)-yl)acetamide], the IC50 in test [1], in test [2] and in test [3] was under 100 nM each time.
Regarding `O=C(Cc1cccc2ncc(F)cc12)Nc1scc(Br)c1-c1nc[nH]n1` [N-(4-bromo-3-(1H-1,2,4-triazol-3-yl)thiophen-2-yl)-2-(3-fluoroquinolin-5-yl)acetamide], the IC50 in test [1], in test [2] and in test [3] was under 100 nM each time.
Consider `O=C(CN1C(=O)CCc2ncccc21)Nc1scc(Br)c1-c1ncco1` [N-(4-bromo-3-(oxazol-2-yl)thiophen-2-yl)-2-(2-oxo-3,4-dihydro-1,5-naphthyridin-1(2H)-yl)acetamide], for which the IC50 in test [1], in test [2] and in test [3] was under 100 nM in each case.
Consider `Cc1n[nH]c(-c2c(Cl)csc2NC(=O)CN2C(=O)CCc3ncccc32)n1` [N-(4-chloro-3-(3-methyl-1H-1,2,4-triazol-5-yl)thiophen-2-yl)-2-(2-oxo-3,4-dihydro-1,5-naphthyridin-1(2H)-yl)acetamide], for which the IC50 in test [1], in test [2] and in test [3] was under 100 nM in each case.
In the case of `Cn1cnc(-c2c(Cl)csc2NC(=O)Cn2c(=O)ccn3nccc23)n1` [N-(4-chloro-3-(1-methyl-1H-1,2,4-triazol-3-yl)thiophen-2-yl)-2-(5-oxopyrazolo[1,5-a]pyrimidin-4(5H)-yl)acetamide], the IC50 in test [1], in test [2] and in test [3] was under 100 nM in each case.
Consider `O=C(Cn1c(=O)ccc2cc(Cl)ccc21)Nc1scc(Br)c1-c1ncn[nH]1` [N-(4-bromo-3-(1H-1,2,4-triazol-5-yl)thiophen-2-yl)-2-(6-chloro-2-oxoquinolin-1(2H)-yl)acetamide], for which the IC50 in test [1], in test [2] and in test [3] was under 100 nM in each case.
For `CN(C)CCn1cnc(-c2c(Cl)csc2NC(=O)Cn2c(=O)ccc3cc(C(F)(F)F)ccc32)n1` [N-(4-chloro-3-(1-(2-(dimethylamino)ethyl)-1H-1,2,4-triazol-3-yl)thiophen-2-yl)-2-(2-oxo-6-(trifluoromethyl)quinolin-1(2H)-yl)acetamide], the IC50 in test [1], in test [2] and in test [3] was under 100 nM in each case.
As for `O=C(Cn1c(=O)ccc2cc(Br)ccc21)Nc1scc(Br)c1-c1nc[nH]n1` [2-(6-bromo-2-oxoquinolin-1(2H)-yl)-N-(4-bromo-3-(1H-1,2,4-triazol-3-yl)thiophen-2-yl)acetamide], the IC50 in test [1], in test [2] and in test [3] was under 100 nM each time.
